Data published in patent US20100323033A1, “CANCER SENSITIZER COMPRISING CHLOROGENIC ACID” (priority 2007, published 2010).

Tested on: Human pancreatic carcinoma cell line AsPC-1 (doxorubicin resistant)
Test: XTT assay of anticancer agent sensitivity in doxorubicin-resistant AsPC-1 cells
Format: cell-based
Details: 48 hrs, FIG. 1
Method: Human pancreatic carcinoma cell line AsPC-1 (doxorubicin resistant) was purchased from ATCC (American Type Culture Collection, Manassas, Va., USA). AsPC-1 cell lines were maintained in media supplemented with 10% fetal bovine serum (Gibco BRL) at 37° C. in a humid 5% CO2 atmosphere, and subcultured every two or three days. XTT assay was conducted to examine whether chlorogenic acid increases the anticancer agent sensitivity. A modified MTT assay, XTT assay is a colorimetric method that determines the relative number of living cells, after treating cells with a compound degraded by a specific enzyme. AsPC-1 cells were seeded in 96-well plates (2×10^4 per well), and cultured for 24 hrs. The cells were treated with 0, 5, and 10 μM of doxorubicin, and 0, 5, 10, and […] of chlorogenic acid, and incubated for 48 hrs. 0.1 ml of active solution and 5 ml of XTT (2,3-Bis{2-methoxy-4-nitro-5[(sulfenylamino) carbonyl]-2H-tetrazolium-hydroxide}) were added to the 96-well plates, and 50 μl of reaction solution was added to each well, followed by incubation for 2 hrs. The plates were gently shaken for staining, and the absorbance was measured at 450 nm using a VERSAmax220 Automatic Microplate Reader (Molecular Devices Corp.).

Compound: O=C(/C=C/c1ccc(O)c(O)c1)O[C@@H]1C[C@](O)(C(=O)O)C[C@@H](O)[C@H]1O [chlorogenic acid, 3-[[3-(3,4-dihydroxyphenyl)-1-oxo-2-propenyl]oxy]-1,4,5-trihydroxycyclohexanecarboxylic acid]
- dependence of cancer cell viability on chlorogenic acid concentration (combination with doxorubicin): decreased, as the concentration of chlorogenic acid was increased
- decrease of viability of cancer cells with chlorogenic acid plus anticancer agent, compared to anticancer agent alone (doxorubicin 0, 5, 10 μM with chlorogenic acid 0, 5, 10, 20μ, absorbance 450 nm): 30%
